Measured values: patent US8383637B2, “2-amino-quinazoline derivatives useful as inhibitors of β-secretase (BACE)” (Jansssen Pharmaceutica N.V., priority 2004, dated 2013)
“And” between values parts separate entries of the source, which are not always exact repeats. Equal entries are not always repeated. Where two headings read alike, the source gives them in different places.

How the values were obtained:
Type in all cases: biochemical
β-secretase(BACE) [1] = molecular target: T1, β-secretase(BACE) (Homo sapiens, UniProt P56817); assay: BACE FS1% Inhibition Assay; conditions: FS1 substrate; for inhibition at 0.3 µM / % Inhibition (FS) 0.3 μM: 0.3 μM test compound; for inhibition at 0.3 µM: read-out: % Inhibition (FS) 0.3 μM; for inhibition at 1 µM / % Inhibition (FS) 1 μM: 1 μM test compound; for inhibition at 1 µM: read-out: % Inhibition (FS) 1 μM; for inhibition at 3 µM / % Inhibition (FS) 3 μM: 3 μM test compound; for inhibition at 3 µM: read-out: % Inhibition (FS) 3 μM
T1 construct: purchased Panvera
T1 sequence (P56817 46-501): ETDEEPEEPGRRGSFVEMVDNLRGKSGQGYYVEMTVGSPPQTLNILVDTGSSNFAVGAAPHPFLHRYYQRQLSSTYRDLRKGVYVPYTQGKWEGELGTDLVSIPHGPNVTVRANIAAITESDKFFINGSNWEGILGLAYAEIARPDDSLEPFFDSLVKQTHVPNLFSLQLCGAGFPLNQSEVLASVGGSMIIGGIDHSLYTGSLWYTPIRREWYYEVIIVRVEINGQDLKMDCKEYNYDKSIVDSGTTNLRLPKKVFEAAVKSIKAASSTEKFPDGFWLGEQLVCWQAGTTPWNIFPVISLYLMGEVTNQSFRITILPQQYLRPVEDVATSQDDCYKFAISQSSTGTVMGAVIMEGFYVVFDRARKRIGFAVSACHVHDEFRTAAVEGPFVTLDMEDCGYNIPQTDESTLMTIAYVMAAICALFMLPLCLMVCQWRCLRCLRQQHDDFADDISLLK
Summary of the method: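 Human BACE (4 μg/mL working solution) preincubated 20 min at room temperature with compound, then FS1 substrate (300 μg/mL working solution) added and incubated 1 h at room temperature. Percent inhibition calculated at each compound concentration against blank and vehicle controls.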

β-secretase(BACE) [2] = molecular target: T1, β-secretase(BACE); assay: BACE Assay-1 (MCA-substrate, IC50)
Summary of the method: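 Human BACE (work solution 10 μg/mL) with MCA-peptide substrate (stock 2.0 mg/mL) in 0.05 M citrate buffer, pH 5.0, with PEG8000. Fluorescence read at T0 and T60; compounds tested at multiple concentrations and IC50 calculated from these readings.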

β-secretase(BACE) [3] = molecular target: T1, β-secretase(BACE); assay: BACE Assay-2 (FS1 substrate, IC50 and Ki); conditions: procedure of Example 159, FS1 substrate
[4] = procedure of Example 158, read-out: IC50 μM (158)

**Q.** Which results are given for `CC(C)OC(=O)NCCN1Cc2cc(Oc3ccccc3)ccc2N=C1N` [Compound 220, [2-(2-Amino-6-phenoxy-4H-quinazolin-3-yl)-ethyl]-carbamic acid isopropyl ester]?
**A.** inhibition at 0.3 µM (β-secretase(BACE) [1]): 103%; inhibition at 1 µM (β-secretase(BACE) [1]): 72%; inhibition at 3 µM (β-secretase(BACE) [1]): 102%; IC50 (β-secretase(BACE) [2]; [4]): 0.45 µM; Ki (β-secretase(BACE) [3]; read-out: Ki μM (159)): 0.2 µM

**Q.** `NC1=Nc2ccc(Oc3ccccc3)cc2CN1CCC(=O)NC1C2CC3CC(C2)CC1C3` (centres unmarked) [Compound 221, N-Adamantan-2-yl-3-(2-amino-6-phenoxy-4H-quinazolin-3-yl) propionamide] was tested. Which “% Inhibition (FS) 0.3 μM” value (β-secretase(BACE) [1]; 0.3 µM) did it give?
**A.** Its value is 110%.

**Q.** And the inhibition at 0.3 µM (β-secretase(BACE) [1])?
**A.** The inhibition at 0.3 µM was 100%.

**Q.** And the “% Inhibition (FS) 1 μM” value (β-secretase(BACE) [1]; 1 µM)?
**A.** Its value is 119%.

**Q.** What about the inhibition at 1 µM (β-secretase(BACE) [1]) of the same compound?
**A.** The inhibition at 1 µM was 115%.

**Q.** And the “% Inhibition (FS) 3 μM” value (β-secretase(BACE) [1]; 3 µM)?
**A.** Its value is 121%.

**Q.** What about the inhibition at 3 µM (β-secretase(BACE) [1]) of the same compound?
**A.** The inhibition at 3 µM was 118%.

**Q.** What about the IC50 (β-secretase(BACE) [2]) of the same compound?
**A.** The IC50 was 0.023 µM.

**Q.** And the IC50 (β-secretase(BACE) [2]; [4])?
**A.** Its IC50 is 0.011 µM.

**Q.** And the Ki (β-secretase(BACE) [3]; Ki μM (159))?
**A.** Its Ki is 0.025 µM and 0.029 µM.

**Q.** What does the source list for `COc1ccccc1-c1ccc2c(c1)CN(C(CCC(=O)N(C)C1CCCCC1)C1CCCCC1)C(N)=N2` (centres unmarked) [Compound 227]?
**A.** inhibition at 0.3 µM (β-secretase(BACE) [1]): 86%; inhibition at 1 µM (β-secretase(BACE) [1]): 109%; inhibition at 3 µM (β-secretase(BACE) [1]): 116%; IC50 (β-secretase(BACE) [2]; [4]): 0.043 µM; Ki (β-secretase(BACE) [3]; read-out: Ki μM (159)): 0.065 µM

**Q.** How did the “% Inhibition (FS) 0.3 μM” value (β-secretase(BACE) [1]) turn out when `CC(C)(C)OC(=O)NCC(c1ccccc1)N1Cc2cc(Oc3ccccc3)ccc2N=C1N` (centres unmarked) [Compound 258] was run?
**A.** The value was under 30%.

**Q.** And the “% Inhibition (FS) 1 μM” value (β-secretase(BACE) [1])?
**A.** Its value is 46%.

**Q.** What about the “% Inhibition (FS) 3 μM” value (β-secretase(BACE) [1]) of the same compound?
**A.** The value was 72%.

**Q.** And the IC50 (β-secretase(BACE) [2]; [4])?
**A.** Its IC50 is 0.39 µM.

**Q.** What about the Ki (β-secretase(BACE) [3]; read-out: Ki μM (159)) of the same compound?
**A.** Its Ki is 0.33 µM.

**Q.** With `CN(C(=O)c1cccc(CN2Cc3cc(-c4c(Cl)cccc4Cl)ccc3N=C2N)c1)C1CCCCC1` [Compound 259] as the compound, how does the inhibition at 0.3 µM (β-secretase(BACE) [1]) read?
**A.** Its inhibition at 0.3 µM is under 30%.

**Q.** What about the inhibition at 1 µM (β-secretase(BACE) [1]) of the same compound?
**A.** Its inhibition at 1 µM is 66%.

**Q.** What about the inhibition at 3 µM (β-secretase(BACE) [1]) of the same compound?
**A.** The inhibition at 3 µM was 97%.

**Q.** What about the IC50 (β-secretase(BACE) [2]; [4]) of the same compound?
**A.** The IC50 was 0.25 µM.

**Q.** And the Ki (β-secretase(BACE) [3]; read-out: Ki μM (159))?
**A.** The Ki was 0.25 µM.

**Q.** How did the inhibition at 0.3 µM (β-secretase(BACE) [1]) turn out when `CN(C(=O)c1cccc(CN2Cc3cc(-c4ccccc4Cl)ccc3N=C2N)c1)C1CCCCC1` [Compound 260] was run?
**A.** Its inhibition at 0.3 µM is 53%.

**Q.** What about the inhibition at 1 µM (β-secretase(BACE) [1]) of the same compound?
**A.** Its inhibition at 1 µM is 86%.

**Q.** What about the inhibition at 3 µM (β-secretase(BACE) [1]) of the same compound?
**A.** Its inhibition at 3 µM is 112%.

**Q.** And the IC50 (β-secretase(BACE) [2]; [4])?
**A.** The IC50 was 0.15 µM.

**Q.** What about the Ki (β-secretase(BACE) [3]; read-out: Ki μM (159)) of the same compound?
**A.** The Ki was 0.21 µM.

**Q.** For `NC1=Nc2ccc(Oc3ccccc3)cc2CN1C(CNC(=O)C1CCCCC1)C1CCCCC1` (centres unmarked) [Compound 294, Cyclohexanecarboxylic acid [2-(2-amino-6-phenoxy-4H-quinazolin-3-yl)-2-cyclohexyl-ethyl]-amide], which inhibition at 0.3 µM (β-secretase(BACE) [1]) is on record?
**A.** Its inhibition at 0.3 µM is 94%.

**Q.** And the inhibition at 1 µM (β-secretase(BACE) [1])?
**A.** The inhibition at 1 µM was 109%.

**Q.** And the inhibition at 3 µM (β-secretase(BACE) [1])?
**A.** Its inhibition at 3 µM is 118%.

**Q.** And the IC50 (β-secretase(BACE) [2]; [4])?
**A.** The IC50 was 0.016 µM.

**Q.** What about the Ki (β-secretase(BACE) [3]; read-out: Ki μM (159)) of the same compound?
**A.** The Ki was 0.02 µM.

**Q.** What does the source list for `CN(C(=O)CCC(c1ccc(Cl)cc1)N1Cc2cc(Oc3ccccc3)ccc2N=C1N)C1CCCCC1` (centres unmarked) [Compound 297]?
**A.** inhibition at 0.3 µM (β-secretase(BACE) [1]): < 30%; inhibition at 1 µM (β-secretase(BACE) [1]): 76%; inhibition at 3 µM (β-secretase(BACE) [1]): 109%; IC50 (β-secretase(BACE) [2]; [4]): 0.066 µM; Ki (β-secretase(BACE) [3]; read-out: Ki μM (159)): 0.12 µM

**Q.** Which inhibition at 0.3 µM (β-secretase(BACE) [1]) does the source give for `COc1ccc(C(CCC(=O)N(C)C2CCCCC2)N2Cc3cc(Oc4ccccc4)ccc3N=C2N)cc1` (centres unmarked) [Compound 298] here?
**A.** Its inhibition at 0.3 µM is under 30%.

**Q.** And the inhibition at 1 µM (β-secretase(BACE) [1])?
**A.** Its inhibition at 1 µM is 75%.

**Q.** And the inhibition at 3 µM (β-secretase(BACE) [1])?
**A.** Its inhibition at 3 µM is 110%.

**Q.** And the IC50 (β-secretase(BACE) [2]; [4])?
**A.** The IC50 was 0.22 µM.

**Q.** What about the Ki (β-secretase(BACE) [3]; read-out: Ki μM (159)) of the same compound?
**A.** Its Ki is 0.23 µM.

**Q.** `CC(C)C(=O)NCC(C1CCCCC1)N1Cc2cc(Oc3ccccc3)ccc2N=C1N` (centres unmarked) [Compound 301] was tested. Which “% Inhibition (FS) 0.3 μM” value (β-secretase(BACE) [1]) did it give?
**A.** The value was under 30%.

**Q.** And the “% Inhibition (FS) 1 μM” value (β-secretase(BACE) [1])?
**A.** Its value is 82%.

**Q.** What about the “% Inhibition (FS) 3 μM” value (β-secretase(BACE) [1]) of the same compound?
**A.** Its value is 106%.

**Q.** And the IC50 (β-secretase(BACE) [2]; [4])?
**A.** The IC50 was 0.15 µM.

**Q.** What about the Ki (β-secretase(BACE) [3]; read-out: Ki μM (159)) of the same compound?
**A.** Its Ki is 0.21 µM.

**Q.** Which results are given for `CCCC(CCC)C(=O)NCC(C1CCCCC1)N1Cc2cc(Oc3ccccc3)ccc2N=C1N` (centres unmarked) [Compound 302]?
**A.** inhibition at 0.3 µM (β-secretase(BACE) [1]): < 30%; inhibition at 1 µM (β-secretase(BACE) [1]): 72%; inhibition at 3 µM (β-secretase(BACE) [1]): 108%; IC50 (β-secretase(BACE) [2]; [4]): 0.05 µM; Ki (β-secretase(BACE) [3]; read-out: Ki μM (159)): 0.14 µM

**Q.** Which results are given for `CCCCC(CC)C(=O)NCC(C1CCCCC1)N1Cc2cc(Oc3ccccc3)ccc2N=C1N` (centres unmarked) [Compound 303]?
**A.** inhibition at 0.3 µM (β-secretase(BACE) [1]): < 30%; inhibition at 1 µM (β-secretase(BACE) [1]): 70%; inhibition at 3 µM (β-secretase(BACE) [1]): 109%; IC50 (β-secretase(BACE) [2]; [4]): 0.062 µM; Ki (β-secretase(BACE) [3]; read-out: Ki μM (159)): 0.24 µM

**Q.** For `NC1=Nc2ccc(Oc3ccccc3)cc2CN1C(CNC(=O)CC1CCCC1)C1CCCCC1` (centres unmarked) [Compound 311], which “% Inhibition (FS) 0.3 μM” value (β-secretase(BACE) [1]) is on record?
**A.** Its value is 74%.

**Q.** What about the “% Inhibition (FS) 1 μM” value (β-secretase(BACE) [1]) of the same compound?
**A.** Its value is 108%.

**Q.** What about the “% Inhibition (FS) 3 μM” value (β-secretase(BACE) [1]) of the same compound?
**A.** The value was 118%.

**Q.** What about the IC50 (β-secretase(BACE) [2]; [4]) of the same compound?
**A.** Its IC50 is 0.02 µM.

**Q.** And the Ki (β-secretase(BACE) [3]; read-out: Ki μM (159))?
**A.** Its Ki is 0.05 µM.

**Q.** How did the inhibition at 0.3 µM (β-secretase(BACE) [1]) turn out when `CN(C(=O)c1cccc(CN2Cc3cc(-c4ccccc4CC#N)ccc3N=C2N)c1)C1CCCCC1` [Compound 325] was run?
**A.** The inhibition at 0.3 µM was under 30%.

**Q.** What about the inhibition at 1 µM (β-secretase(BACE) [1]) of the same compound?
**A.** Its inhibition at 1 µM is 86%.

**Q.** And the inhibition at 3 µM (β-secretase(BACE) [1])?
**A.** Its inhibition at 3 µM is 110%.

**Q.** What about the IC50 (β-secretase(BACE) [2]; [4]) of the same compound?
**A.** Its IC50 is 0.089 µM.

**Q.** What about the Ki (β-secretase(BACE) [3]; read-out: Ki μM (159)) of the same compound?
**A.** Its Ki is 0.1 µM.
